Experimental data published in article PMC10315696, “PSMA-GCK01: A Generator-Based ^99mTc/^188Re Theranostic Ligand for the Prostate-Specific Membrane Antigen” (Journal of Nuclear Medicine, 2023).
*1 amine or outer side, *2 acyl side, *3 side chain or, on linkers, in order; H or OH if unused. Where a SMILES comes first, the peptide text is derived from it. [ ]: non-standard residue; d: D form. The star is where a group is joined. X2 = O=C(O)CCC(NC(=O)NC(CCCCN*)C(=O)O)C(=O)O; 2Nal = N[CH](Cc1ccc2ccccc2c1)C(=O)O; X1 = O=C(C1CCC(N[*:1])CC1)[*:2]; Mercaptoacetyl = O=C(CS)*

Assays:
[1] = system: mice; test: Toxicologic investigation (OECD guideline)
Experimental: The evaluation was conducted using well-known standard methods ([16],[17]).

[2] = system: patients with metastatic castration-resistant prostate cancer; test: Clinical imaging and therapy under compassionate care; format: in vivo, humans
Experimental: After giving written informed consent, 3 patients with metastatic castration-resistant prostate cancer received PSMA-radioligand therapy (RLT) and the related companion diagnostic under compassionate-care regulations. Prospective clinical trial registration is not required for compassionate care that is performed under an individual medical indication.
The timeline of imaging time points is illustrated in Figure 2.

| SMILES | mortality ([1]; mice) | dose without toxicologic effect ([1]; mice, third-party preclinical research organization) | organ weights or macroscopic observations ([1]; terminal or recovery euthanasia) | liver-to-kidney uptake ratio compared with PSMA-617 ([2]; initially, intraindividual comparison) | clearance route ([2]; dual-photopeak imaging) |
| --- | --- | --- | --- | --- | --- |
| O=C(O)CCC(NC(=O)NC(CCCCNC(=O)C(Cc1ccc2ccccc2c1)NC(=O)C1CCC(NC(=O)C(CO)NC(=O)C(CO)NC(=O)C(CO)NC(=O)CS)CC1)C(=O)O)C(=O)O (centres unmarked) [PSMA-GCK01] (Mercaptoacetyl-SSS[X1][2Nal]-X2; configuration not given here) | No test article–related mortality | up to 2 mg/kg | No differences | higher | – |
| O=C([O-])CN1CCN(CC(=O)[O-])CCN(CC(=O)NCC2CCC(C(=O)N[C@@H](Cc3ccc4ccccc4c3)C(=O)NCCCC[C@H](NC(=O)N[C@@H](CCC(=O)O)C(=O)O)C(=O)O)CC2)CCN(CC(=O)[O-])CC1.[177Lu+3] (some centres unmarked) [^177Lu-PSMA-617, reference compound] | – | – | – | – | combined renal and hepatointestinal clearance route |
